The target in one assay is T1, CDK9/CycT1 (Homo sapiens, UniProt P50750).
T1 construct: Recombinant full-length His-tagged human CDK9 and CycT1; His; purchased Invitrogen PV4131; host or cells: insect cells
The experiment in a line: CDK9/CycT1 kinase assay (TR-FRET). In kind it is biochemical. Particulars: Method 1, 10 μM ATP. An excerpt: 1. CDK9/CycT1 Kinase Assay:
CDK9/CycT1-inhibitory activity of compounds of the present invention was quantified employing the CDK9/CycT1 TR-FRET assay as described in the following paragraphs:
Recombinant full-length His-tagged human CDK9 and CycT1, expressed in insect cells and purified by Ni-NTA affinity chromatography, were purchased from Invitrogen (Cat. No PV4131). As substrate for the kinase reaction biotinylated peptide biotin-Ttds-[…] (C-terminus in amid form) was used which can be purchased e.g. form the company JERINI Peptide Technologies (Berlin, Germany). For the assay 50 nl of a 100fold concentrated solution of the test compound in DMSO was pipetted into a black low volume 384well microtiter plate (Greiner Bio-One, Frickenhausen, Germany), 2 μl of a solution of CDK9/CycT1 in aqueous assay buffer [50 mM Tris/HCl pH 8.0, 10 mM MgCl2, 1.0 mM dithiothreitol, 0.1 mM sodium ortho-vanadate, 0.01% (v/v) Nonidet-P40 (Sigma)] were added and the mixture was incubated for 15 min at 22° C. to allow pre-binding of the test compounds to the enzyme before the start of the kinase reaction. Then the kinase reaction was started by the addition of 3 μl of a solution of adenosine-tri-phosphate (ATP, 16.7 μM=>final conc. in the 5 μl assay volume is 10 μM) and substrate (1.67 μM=>final conc. in the 5 μl assay volume is 1 μM) in assay buffer and the resulting mixture was incubated for a reaction time of 25 min at 22° C. The concentration of CDK9/CycT1 was adjusted depending of the activity of the enzyme lot and was chosen appropriate to have the assay in the linear range, typical concentrations were in the range of 1 μg/ml. The reaction was stopped by the addition of 5 μl of a solution of TR-FRET detection reagents (0.2 μM streptavidine-XL665 [Cisbio Bioassays, Codolet, France] and 1 nM anti-RB(pSer807/pSer811)-antibody from BD Pharmingen [#558389] and 1.2 nM LANCE EU-W1024 labeled anti-mouse IgG antibody [Perkin-Elmer, product no. AD0077]) in an aqueous EDTA-solution (100 mM EDTA, 0.2% (w/v) bovine serum albumin in 100 mM HEPES/NaOH pH 7.0).
(§1) The resulting mixture was incubated 1 h at 22° C. to allow the formation of complex between the phosphorylated biotinylated peptide and the detection reagents. Subsequently the amount of phosphorylated substrate was evaluated by measurement of the resonance energy transfer from the Eu-chelate to the streptavidine-XL. Therefore, the fluorescence emissions at 620 nm and 665 nm after excitation at 350 nm was measured in a HTRF reader, e.g. a Rubystar (BMG Labtechnologies, Offenburg, Germany) or a Viewlux (Perkin-Elmer). The ratio of the emissions at 665 nm and at 622 nm was taken as the measure for the amount of phosphorylated substrate.

The target in a further assay is T2, CDK2/CycE (Homo sapiens, UniProt P24941).
T2 construct: GST; purchased ProQinase GmbH (Freiburg, Germany); host or cells: insect cells (Sf9)
In words: CDK2/CycE kinase assay (TR-FRET). In kind it is biochemical. Particulars: Method 2, 10 μM ATP.
Source text: 2. CDK2/CycE Kinase Assay:
CDK2/CycE-inhibitory activity of compounds of the present invention was quantified employing the CDK2/CycE TR-FRET assay as described in the following paragraphs:
Recombinant fusion proteins of GST and human CDK2 and of GST and human CycE, expressed in insect cells (Sf9) and purified by Glutathion-Sepharose affinity chromatography, were purchased from ProQinase GmbH (Freiburg, Germany). As substrate for the kinase reaction biotinylated peptide biotin-Ttds-[…] (C-terminus in amid form) was used which can be purchased e.g. form the company JERINI Peptide Technologies (Berlin, Germany).
For the assay 50 nl of a 100fold concentrated solution of the test compound in DMSO was pipetted into a black low volume 384well microtiter plate (Greiner Bio-One, Frickenhausen, Germany), 2 μl of a solution of CDK2/CycE in aqueous assay buffer [50 mM Tris/HCl pH 8.0, 10 mM MgCl2, 1.0 mM dithiothreitol, 0.1 mM sodium ortho-vanadate, 0.01% (v/v) Nonidet-P40 (Sigma)] were added and the mixture was incubated for […] at 22° C. to allow pre-binding of the test compounds to the enzyme before the start of the kinase reaction. Then the kinase reaction was started by the addition of 3 μl of a solution of adenosine-tri-phosphate (ATP, 16.7 μM=>final conc. in the 5 it assay volume is 10 μM) and substrate (1.25 μM=>final conc. in the 5 it assay volume is 0.75 μM) in assay buffer and the resulting mixture was incubated for a reaction time of […] at 22° C. The concentration of CDK2/CycE was adjusted depending of the activity of the enzyme lot and was chosen appropriate to have the assay in the linear range, typical concentrations were in the range of 130 ng/ml. The reaction was stopped by the addition of 5 it of a solution of TR-FRET detection reagents (0.2 μM streptavidine-XL665 [Cisbio Bioassays, Codolet, France] and 1 nM anti-RB(pSer807/pSer811)-antibody from BD Pharmingen [#558389] and 1.2 nM LANCE EU-W1024 labeled anti-mouse IgG antibody [Perkin-Elmer, product no. AD0077]) in an aqueous EDTA-solution (100 mM EDTA, 0.2% (w/v) bovine serum albumin in 100 mM HEPES/NaOH pH 7.0).
as §1, with “TR-FRET” for “HTRF”
In general terms: TR-FRET usually uses a lanthanide donor and a delayed reading to cut background.

T1 sequence (P50750 whole entry): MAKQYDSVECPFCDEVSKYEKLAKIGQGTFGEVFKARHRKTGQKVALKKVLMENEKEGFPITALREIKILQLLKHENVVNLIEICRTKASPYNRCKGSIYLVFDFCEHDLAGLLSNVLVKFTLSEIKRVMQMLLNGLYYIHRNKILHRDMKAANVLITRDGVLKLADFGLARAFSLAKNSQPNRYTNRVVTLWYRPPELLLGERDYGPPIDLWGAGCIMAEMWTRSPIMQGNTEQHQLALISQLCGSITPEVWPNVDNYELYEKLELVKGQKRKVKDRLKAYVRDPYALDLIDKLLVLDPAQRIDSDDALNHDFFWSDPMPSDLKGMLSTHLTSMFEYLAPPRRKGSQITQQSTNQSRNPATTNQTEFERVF
T1 sequence (O60563 whole entry partner): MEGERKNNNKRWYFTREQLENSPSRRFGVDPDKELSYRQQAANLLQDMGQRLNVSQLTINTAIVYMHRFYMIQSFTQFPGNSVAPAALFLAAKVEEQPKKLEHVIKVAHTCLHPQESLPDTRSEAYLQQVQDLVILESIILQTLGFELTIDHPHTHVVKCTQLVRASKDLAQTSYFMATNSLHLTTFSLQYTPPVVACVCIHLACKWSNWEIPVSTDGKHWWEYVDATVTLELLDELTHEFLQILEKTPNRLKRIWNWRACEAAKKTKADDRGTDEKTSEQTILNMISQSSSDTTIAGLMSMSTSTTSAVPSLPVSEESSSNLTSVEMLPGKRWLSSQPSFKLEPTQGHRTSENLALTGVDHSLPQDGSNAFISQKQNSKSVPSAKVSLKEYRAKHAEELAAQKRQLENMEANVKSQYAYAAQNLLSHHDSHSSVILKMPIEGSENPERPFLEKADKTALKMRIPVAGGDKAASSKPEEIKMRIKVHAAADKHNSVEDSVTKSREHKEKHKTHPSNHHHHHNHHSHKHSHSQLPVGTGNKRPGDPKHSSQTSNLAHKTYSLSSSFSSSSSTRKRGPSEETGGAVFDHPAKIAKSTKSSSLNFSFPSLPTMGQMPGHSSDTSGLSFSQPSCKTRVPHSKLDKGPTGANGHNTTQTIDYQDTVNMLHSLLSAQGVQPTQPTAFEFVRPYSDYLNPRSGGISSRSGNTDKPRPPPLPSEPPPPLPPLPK

The IC50 is the point on the concentration scale where inhibition reaches its midpoint. Low readings indicate higher potency, high ones lower potency. As to `COc1cc(Cl)ccc1-c1ncnc(Nc2cccc(CS(C)(=O)=O)c2)n1` [Example 32, 4-(4-Chloro-2-methoxyphenyl)-N-{3-[(methylsulfonyl)methyl]phenyl}-1,3,5-triazin-2-amine], the IC50 stood at 25 nM at CDK9/CycT1 and 2300 nM on CDK2/CycE.
Turning to `CS(=O)(=O)Cc1cccc(Nc2ncnc(-c3ccccc3OCc3ccccc3Cl)n2)c1` [Example 27, 4-{2-[(2-Chlorobenzyl)oxy]phenyl}-N-{3-[(methylsulfonyl)methyl]phenyl}-1,3,5-triazin-2-amine], the IC50 at CDK9/CycT1 was determined as 87 nM; on CDK2/CycE, 8800 nM.
For `CS(=O)(=O)Cc1cccc(Nc2ncnc(-c3ccc(F)cc3OC3CCCC3)n2)c1` [Example 65, 4-[2-(Cyclopentyloxy)-4-fluorophenyl]-N-{3-[(methylsulfonyl)methyl]phenyl}-1,3,5-triazin-2-amine], in that order: 36 nM and 2300 nM.
Turning to `CS(=O)(=O)Cc1cccc(Nc2ncnc(-c3cc(F)ccc3OCc3ccccc3F)n2)c1` [Example 30, 4-{5-Fluoro-2-[(2-fluorobenzyl)oxy]phenyl}-N-{3-[(methylsulfonyl)methyl]phenyl}-1,3,5-triazin-2-amine], the IC50 on CDK9/CycT1 stood at 32 nM; against CDK2/CycE it was 6600 nM.
For `CS(=O)(=O)Cc1cccc(Nc2ncnc(-c3cc(F)ccc3OCC3CCOCC3)n2)c1` [Example 21, 4-[5-Fluoro-2-(tetrahydro-2H-pyran-4-ylmethoxy)phenyl]-N-{3-[(methylsulfonyl)methyl]phenyl}-1,3,5-triazin-2-amine], in that order: 110 nM and 8800 nM.
For `COc1cc(F)ccc1-c1ncnc(Nc2cccc(CS(=O)(=O)C(C)(C)C)c2)n1` [Example 17, N-{3-[(tert-Butylsulfonyl)methyl]phenyl}-4-(4-fluoro-2-methoxyphenyl)-1,3,5-triazin-2-amine], in that order: 47 nM and 2000 nM.
As for `CS(=O)(=O)Cc1cccc(Nc2ncnc(-c3cccc4c3OC(F)(F)O4)n2)c1` [Example 6, 4-(2,2-Difluoro-1,3-benzodioxol-4-yl)-N-{3-[(methylsulfonyl)methyl]phenyl}-1,3,5-triazin-2-amine], the IC50 at CDK9/CycT1 came out at 33 nM; on CDK2/CycE, 1300 nM.
On to `CS(=O)(=O)Cc1cccc(Nc2ncnc(-c3ccc(F)cc3OCCC3CCCCC3)n2)c1` [Example 63, 4-[2-(2-Cyclohexylethoxy)-4-fluorophenyl]-N-{3-[(methylsulfonyl)methyl]phenyl}-1,3,5-triazin-2-amine], for which the values for the IC50 on CDK9/CycT1 and against CDK2/CycE were 170 nM and 7400 nM, respectively.
For `COc1cc(F)ccc1-c1ncnc(Nc2cccc(CS(=O)(=O)c3ccccc3)c2)n1` [Example 35, 4-(4-Fluoro-2-methoxyphenyl)-N-{3-[(phenylsulfonyl)methyl]phenyl}-1,3,5-triazin-2-amine], in that order: 30 nM and 2200 nM.
For `CS(=O)(=O)Cc1cccc(Nc2ncnc(-c3ccccc3OCC(F)(F)F)n2)c1` [Example 16, N-{3-[(Methylsulfonyl)methyl]phenyl}-4-[2-(2,2,2-trifluoroethoxy)phenyl]-1,3,5-triazin-2-amine], in that order: 74 nM and 8300 nM.
On to `COc1c(-c2ncnc(Nc3cccc(CS(C)(=O)=O)c3)n2)ccc(F)c1F` [Example 2, 4-(3,4-Difluoro-2-methoxyphenyl)-N-{3-[(methylsulfonyl)methyl]phenyl}-1,3,5-triazin-2-amine], for which the IC50 at CDK9/CycT1 came to 160 nM; at CDK2/CycE it was 8600 nM.
For `CS(=O)(=O)Cc1cccc(Nc2ncnc(-c3ccc(F)cc3OC3CCC3)n2)c1` [Example 64, 4-[2-(Cyclobutyloxy)-4-fluorophenyl]-N-{3-[(methylsulfonyl)methyl]phenyl}-1,3,5-triazin-2-amine], the IC50 against CDK9/CycT1 was determined as 34 nM; against CDK2/CycE it was 1800 nM.
Take `CS(=O)(=O)Cc1cccc(Nc2ncnc(-c3ccc(F)cc3OCc3ccnc(F)c3)n2)c1` [Example 82, 4-{4-Fluoro-2-[(2-fluoropyridin-4-yl)methoxy]-phenyl}-N-{3-[(methylsulfonyl)-methyl]-phenyl}-1,3,5-triazin-2-amine]: the IC50 at CDK9/CycT1 turned out to be 1 nM; against CDK2/CycE, 75 nM.
On to `CS(=O)(=O)Cc1cccc(Nc2ncnc(-c3ccc(F)cc3OC(F)F)n2)c1` [Example 15, 4-[2-(Difluoromethoxy)-4-fluorophenyl]-N-{3-[(methylsulfonyl)methyl]phenyl}-1,3,5-triazin-2-amine], for which the IC50 stood at 130 nM against CDK9/CycT1 and 3900 nM at CDK2/CycE.
Turning to `CS(=O)(=O)Cc1cccc(Nc2ncnc(-c3cccc4c3OC(F)(F)C(F)(F)O4)n2)c1` [Example 19, N-{3-[(Methylsulfonyl)methyl]phenyl}-4-(2,2,3,3-tetrafluoro-2,3-dihydro-1,4-benzodioxin-5-yl)-1,3,5-triazin-2-amine], the IC50 is 35 nM at CDK9/CycT1 and 640 nM against CDK2/CycE.
For `CS(=O)(=O)Cc1cccc(Nc2ncnc(-c3ccccc3OC(F)(F)F)n2)c1` [Example 7, N-{3-[(Methylsulfonyl)methyl]phenyl}-4-[2-(trifluoromethoxy)phenyl]-1,3,5-triazin-2-amine], in that order: 330 nM and 5400 nM.
Consider `COc1ncccc1-c1ncnc(Nc2cccc(CS(C)(=O)=O)c2)n1` [Example 20, 4-(2-Methoxypyridin-3-yl)-N-{3-[(methylsulfonyl)methyl]phenyl}-1,3,5-triazin-2-amine], for which the IC50 on CDK9/CycT1 amounted to 110 nM; on CDK2/CycE, 8200 nM.
With `CS(=O)(=O)Cc1cccc(Nc2ncnc(-c3ccc(F)cc3OCC3(F)CCCCC3)n2)c1` [Example 66, 4-{4-Fluoro-2-[(1-fluorocyclohexyl)-methoxy]phenyl}-N-{3-[(methylsulfonyl)-methyl]phenyl}-1,3,5-triazin-2-amine], the figures for the IC50 against CDK9/CycT1 and on CDK2/CycE were 22 nM and 6800 nM, respectively.

(Values after patent US8916557B2, “Substituted 4-Aryl-N-phenyl-1,3,5-triazin-2-amines” (Bayer Intellectual Property GmbH, priority 2011, dated 2014).)
